Measurements from paper PMC10914731, “Homo-BacPROTAC-induced degradation of ClpC1 as a strategy against drug-resistant mycobacteria” (Nature Communications, 2024).
In brackets after ≈: the same amount, converted by molar mass. Several values for one entry are separate records, joined by “and”; a condition that tells them apart may be missing. Identical values can stand only once. Like-named read-outs stand apart in the source and are kept apart here. *1 amine or outer side, *2 acyl side, *3 side chain or, on linkers, in order; H or OH if unused. Where a SMILES comes first, the peptide text is derived from it. [ ]: non-standard residue; d: D form. X1 = C#CCn1cc(C[C@H](N[*:1])C(=O)[*:2])c2ccccc21; NMeLeu(5-OH,4R) = CN[C@@H](C[C@@H](C)CO)C(=O)O; Phe(βR-OMe) = CO[C@H](c1ccccc1)[C@H](N)C(=O)O; NMeL = CN[C@@H](CC(C)C)C(=O)O

What was measured:
[1] = system: Enterobacter cloacae; test: MIC ESKAPES panel, Enterobacter cloacae; type: cell-based
Procedure, shortened: (§1)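 CLSI broth microdilution was run in Mueller Hinton broth with an inoculum of 3–7 × 10^5 cfu/ml at 37 °C. Turbidity was read on day 2; clear wells indicated growth inhibition.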

[2] = system: Mtb # 8673; test: microbe, parasite or virus in culture; type: cell-based
[3] = system: M. tuberculosis H37Rv (ATCC 27294); test: microbe, parasite or virus in culture; type: cell-based
[4] = system: Mycobacterium abscessus; test: microbe, parasite or virus in culture; type: cell-based
[5] = Microsomal stability, human; type: in vitro ADME
Procedure, shortened: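 Steps: incubate compound at 1 µmol/l with liver microsomes (0.5 mg/ml) plus 1 mM NADPH in pH 7.5 Tris-HCl buffer containing MgCl2 at 37 °C; stop aliquots over time with acetonitrile; centrifuge and measure remaining compound by LC-MS/MS; fit first-order decay and convert half-life to %Qh.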

[6] = system: Msm 700084; test: microbe, parasite or virus in culture; type: cell-based
[7] = target: ClpC1 NTD protein (M. tuberculosis) (Mycobacterium tuberculosis, UniProt P9WPC9); test: biochemical; type: binding; details: SPR
Sequence of ClpC1 NTD protein (M. tuberculosis) (P9WPC9 1-156, looked up, natural form): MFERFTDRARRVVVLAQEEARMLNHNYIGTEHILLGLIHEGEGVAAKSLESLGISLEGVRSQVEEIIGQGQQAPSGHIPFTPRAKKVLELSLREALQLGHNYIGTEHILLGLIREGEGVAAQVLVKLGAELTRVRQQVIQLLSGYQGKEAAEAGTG

[8] = system: Mycobacterium avium; test: microbe, parasite or virus in culture; type: cell-based
[9] = system: Salmonella typhimurium; test: MIC ESKAPES panel, Salmonella typhimurium; type: cell-based
Procedure, shortened: as §1

[10] = in vitro; details: human
Procedure, shortened: (§2)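 Values are bidirectional Caco-2 apparent permeabilities, P(A−B) and P(B−A), given in 10^-6 cm s-1. The efflux ratio divides P(B−A) by P(A−B), and intrinsic permeability averages the two directions.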

[11] = system: Caco-2 monolayers; test: in vitro; details: human, Caco-2
Procedure, shortened: as §2

[12] = system: Msm 607; test: microbe, parasite or virus in culture; type: cell-based
[13] = system: Mtb (katG del) ATCC 35822; test: microbe, parasite or virus in culture; type: cell-based; details: Mycobacterium tuberculosis
[14] = target: His6-tagged ClpC1-NTD substrate, M. smegmatis ClpC1P1P2 (UniProt A0R574+P9WPC9); test: biochemical; type: biochemical; details: for DC50: Msm; for % Response / ClpC1-NTD peak area: Figure 4a source data, well replicates
Sequence of His6-tagged ClpC1-NTD substrate, M. smegmatis ClpC1P1P2 (P9WPC9 1-156, looked up, natural form): as above
Sequence of His6-tagged ClpC1-NTD substrate, M. smegmatis ClpC1P1P2 (A0R574 whole entry): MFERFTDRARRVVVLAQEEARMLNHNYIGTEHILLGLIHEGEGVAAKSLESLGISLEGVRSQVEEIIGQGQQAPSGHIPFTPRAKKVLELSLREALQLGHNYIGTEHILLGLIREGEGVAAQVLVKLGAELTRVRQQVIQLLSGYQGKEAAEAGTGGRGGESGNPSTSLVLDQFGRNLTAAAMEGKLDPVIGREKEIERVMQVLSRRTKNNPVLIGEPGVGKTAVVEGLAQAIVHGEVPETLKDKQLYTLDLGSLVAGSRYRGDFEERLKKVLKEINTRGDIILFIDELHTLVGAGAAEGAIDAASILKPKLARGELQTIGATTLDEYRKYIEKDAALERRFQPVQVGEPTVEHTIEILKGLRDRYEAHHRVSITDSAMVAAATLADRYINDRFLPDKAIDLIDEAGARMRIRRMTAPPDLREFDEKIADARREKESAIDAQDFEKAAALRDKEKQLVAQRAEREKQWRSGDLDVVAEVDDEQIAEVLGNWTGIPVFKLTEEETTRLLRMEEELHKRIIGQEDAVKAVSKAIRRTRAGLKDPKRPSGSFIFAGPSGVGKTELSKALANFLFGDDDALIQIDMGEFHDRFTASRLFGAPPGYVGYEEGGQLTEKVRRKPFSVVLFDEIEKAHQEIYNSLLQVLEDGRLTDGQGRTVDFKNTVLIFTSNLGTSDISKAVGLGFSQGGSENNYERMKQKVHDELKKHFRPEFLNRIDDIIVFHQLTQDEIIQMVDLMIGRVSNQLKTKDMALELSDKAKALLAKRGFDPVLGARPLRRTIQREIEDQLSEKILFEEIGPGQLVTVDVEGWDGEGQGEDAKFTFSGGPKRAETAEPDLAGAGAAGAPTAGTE

[15] = system: Mtb # 11291; test: microbe, parasite or virus in culture; type: cell-based; details: single well replicates
[16] = Gram-Negative Bacteria, replicates 1-3
[17] = Experiment 2, three replicate columns

With C#CCn1cc(C[C@@H]2NC(=O)[C@H](C(C)C)NC(=O)[C@H](CC(C)C)N(C)C(=O)[C@H](C(C)C)NC(=O)[C@H]([C@H](OC)c3ccccc3)NC(=O)[C@H](C)NC(=O)[C@H](C[C@@H](C)CO)N(C)C2=O)c2ccccc21 [Compound 5] (cyclo(A[Phe(βR-OMe)]V[NMeL]V[X1][NMeLeu(5-OH,4R)])) the MIC ([1]; Enterobacter cloacae, Gram negative, n = 3 well replicates) was greater than 50 µM, the MIC ([1]; Enterobacter cloacae, Gram-Negative Bacteria, replicates 1-3) was greater than 47 µg/mL and the MIC [1, 16] was greater than 50 µM. For the same molecule, the MIC ([2]; Mycobacterium tuberculosis, mean, n = 2 well replicates) was 0.2 µM and 0.2 µg/mL, the MIC ([2]; Mycobacterium tuberculosis, single well replicates) was 0.19 µM and 0.18 µg/mL and the MIC ([2]; single well replicates) was 0.19 µM (≈ 0.179 µg/mL). The “MIC Mtb # 8673” value ([2]; single well replicates) was 0.18 µg/mL (≈ 0.191 µM), the MIC ([3]; M. tuberculosis H37Rv 27294, single well replicates, read-out: MIC) was 3.125 µM (2×) and 1.56 µM and the MIC ([3]; Mycobacterium tuberculosis, M. tuberculosis H37Rv strain, read-out: MIC Mtb H37Rv Mean ± SD) was 1.6 µM (≈ 1.51 µg/mL). For the same molecule, the MIC ([3]; Mycobacterium tuberculosis, Mtb H37Rv (Supplementary Table 2), read-out: MIC Mtb) was 1.6 µM (≈ 1.51 µg/mL), the MIC ([3]; Mycobacterium tuberculosis, Mtb H37Rv, mean ± SD, n = 3 well replicates, read-out: MIC) was 2.6 ± 0.9 µM (≈ 2.45 µg/mL) and the MIC ([3]; Mycobacterium tuberculosis, Set 1, read-out: MIC (Mtb H37Rv) Set 1) was 1.56 µM and 1.47 µg/mL. The MIC ([3]; Mycobacterium tuberculosis, Set 2, read-out: MIC (Mtb H37Rv) Set 2) was 1.56 µM and 1.47 µg/mL, the MIC ([3]; Mycobacterium tuberculosis, Set 3, done at a different day than Set 1 and Set 2, read-out: MIC (Mtb H37Rv) Set 3) was 1.56 µM and 1.47 µg/mL and the MIC ([3]; Mycobacterium tuberculosis, individual example (Supplementary Table 11), read-out: MIC Mtb H37Rv) was 1.6 µM and 1.5 µg/mL. For the same molecule, the MIC ([3]; Mycobacterium tuberculosis, individual measurements (source data), read-out: Mtb MIC) was 1.56 µM (≈ 1.47 µg/mL), the MIC ([3]; Mycobacterium tuberculosis, mean of 3 experiments +/- SD, unit taken from the sets above in the same table, read-out: MIC data (Mtb H37Rv) (+/- SD)) was 1.56 µM and 1.47 µg/mL and the MIC ([3]; Mycobacterium tuberculosis, single determinations, read-out: Mtb MIC) was 1.56 µM (≈ 1.47 µg/mL). For the same molecule, the “MIC (µg/ml) Mycobacterium abscessus” value [4, 17] was 5.88 µg/mL (≈ 6.25 µM), the MIC ([4]; Experiment 2, three replicate columns, read-out: MIC (µM) Mycobacterium abscessus) was 6.25 µM and the MIC ([4]; Mycobacteroides abscessus, Experiment 1, read-out: MIC Mycobacterium abscessus) was 3.1 µM and 2.9 µg/mL. The MIC ([4]; Mycobacteroides abscessus, Experiment 2, three replicate columns, read-out: MIC (µM) Mycobacterium abscessus) was 6.25 µM, the MIC ([4]; Mycobacteroides abscessus, Experiment 2, three replicate columns, read-out: MIC (µg/ml) Mycobacterium abscessus) was 5.88 µg/mL and the MIC ([4]; Mycobacteroides abscessus, mean ± SD, read-out: MIC Mycobacterium abscessus) was 5.5 ± 1.6 µM. For the same molecule, the “Microsomal Stability Human QH” value ([5]; Human) was greater than 88.400%, the “Microsomal Stability Human” value ([5]; clearance in microsomes) was greater than 88 %Qh and the MIC ([6]; Mycolicibacterium smegmatis, 700084, single determinations, read-out: Msm 700084 MIC) was 6.25 µM (≈ 5.88 µg/mL). For the same molecule, the MIC ([6]; Mycolicibacterium smegmatis, 700084, read-out: MIC Msm 700084) was 6.3 µM (≈ 5.93 µg/mL), the Kd ([7]; individual measurements (source data), read-out: KD ClpC1-NTD) was 3.63 nM and 3.45 nM and the “koff ClpC1-NTD” value ([7]; single independent measurements) was 0.04 s⁻¹. The koff ([7]; single independent measurements, read-out: koff ClpC1-NTD) was 0.02 s⁻¹, the Kd ([7]; read-out: ClpC1-NTD KD Mean ± SD) was 3.5 ± 0.1 nM and the MIC ([8]; Experiment 1, read-out: MIC Mycobacterium avium) was 6.3 µM. The “MIC (µg/ml) Mycobacterium avium” value [8, 17] was 5.88 µg/mL (≈ 6.25 µM), the MIC ([8]; Experiment 2, three replicate columns, read-out: MIC (µM) Mycobacterium avium) was 6.25 µM and the MIC ([8]; Mycobacterium avium, Experiment 1, read-out: MIC Mycobacterium avium) was 5.9 µg/mL. The MIC ([8]; Mycobacterium avium, Experiment 2, three replicate columns, read-out: MIC (µM) Mycobacterium avium) was 6.25 µM, the MIC ([8]; Mycobacterium avium, Experiment 2, three replicate columns, read-out: MIC (µg/ml) Mycobacterium avium) was 5.88 µg/mL and the MIC ([8]; Mycobacterium avium, mean ± SD, read-out: MIC Mycobacterium avium) was 6.3 µM. For the same molecule, the MIC [9, 16] was greater than 50 µM, the MIC ([9]; Salmonella enterica, TYPHIMURIUM, Gram negative, n = 3 well replicates) was greater than 50 µM and the MIC ([9]; Salmonella enterica, TYPHIMURIUM, Gram-Negative Bacteria, replicates 1-3) was greater than 47 µg/mL. The efflux ratio ([10]; Caco-2) was 20.4, the Papp A→B ([10]; Caco-2, CACO permeability PEAB) was 0.95 ×10⁻⁶ cm/s and the Papp B→A ([10]; Caco-2, CACO permeability PEBA) was 19 ×10⁻⁶ cm/s. The Papp A→B ([10]; Caco-2, Caco-2 permeability P (A-B)) was 1.1 ×10⁻⁶ cm/s, the Papp B→A ([10]; Caco-2, Caco-2 permeability P (B-A)) was 23 ×10⁻⁶ cm/s and the “Caco-2 Int. Perm” value [11] was 12.1. For the same molecule, the “Influence of N-methylation on permeability” value [11] was 9.3, the MIC ([12]; Mycolicibacterium smegmatis, 607, read-out: MIC Msm 607) was 25 µM (≈ 23.5 µg/mL) and the MIC ([12]; Mycolicibacterium smegmatis, 607, read-out: MIC Msm #607, individual example (Supplementary Table 11)) was 25 µM and 23.5 µg/mL. For the same molecule, the MIC ([12]; Mycolicibacterium smegmatis, 607, read-out: Msm 607 MIC, single determinations) was 25 µM (≈ 23.5 µg/mL), the MIC ([12]; Mycolicibacterium smegmatis, ATCC607, Set-1, read-out: MIC (Msm ATCC607) Set-1) was 12.5 µM and 11.8 µg/mL and the MIC ([12]; Mycolicibacterium smegmatis, ATCC607, Set-2, read-out: MIC (Msm ATCC607) Set-2) was 25 µM and 23.5 µg/mL. For the same molecule, the MIC ([12]; Mycolicibacterium smegmatis, ATCC607, Set-3, done at a different day than Set 1 and Set 2, read-out: MIC (Msm ATCC607) Set-3) was 12.5 µM and 11.8 µg/mL, the MIC ([12]; Mycolicibacterium smegmatis, ATCC607, mean of 3 experiments ± SD, read-out: MIC including standard deviations (Msm ATCC607)) was 16.6 µM and 15.7 µg/mL and the MIC ([13]; ATCC35822, M. tuberculosis ATCC 35822, single well replicates) was 0.781 µM (≈ 0.735 µg/mL). It also gave an MIC ([13]; ATCC35822, Mtb (katG del) ATCC 35822, mean ± SD, n = 3 well replicates) of 0.8 µM (≈ 0.753 µg/mL), a DC50 ([14]; Measurement 1-6, read-out: DC50, single measurements) greater than 100000 nM and a DC50 ([14]; mean of the measurements, read-out: DC50, Mean) greater than 100000 nM. For the same molecule, the “degradation of the His6-tagged ClpC1-NTD substrate” value ([14]; cell-free, result in words) was “did not cause any degradation”, the “% Response” value ([14]; conc. 0.4 µM) was 116.842% and 113.028% and 105.03% and 119.052% and 111.716% and 114.137% and 123.793% and 118.108% and 117.25% and the ClpC1-NTD peak area ([14]; conc. 0.4 µM) was 640826 and 655003 and 1857813 and 1613203 and 1512289 and 674239 and 595770 and 768891 and 644662. The “% Response” value ([14]; conc. 33.3 µM) was 90.9541% and 97.3128% and 94.2061% and 106.414% and 99.6024% and 104.896% and 117.254% and 102.794% and 105.872%, the ClpC1-NTD peak area ([14]; conc. 33.3 µM) was 584244 and 637952 and 1853168 and 1510772 and 1477984 and 564418 and 575020 and 543552 and 642219 and the “% Response” value ([14]; conc. 100.0 µM) was 105.654% and 87.8451% and 96.6012% and 102.875% and 103.779% and 107.689% and 115.982% and 114.344% and 115.781%. The ClpC1-NTD peak area ([14]; conc. 100.0 µM) was 756908 and 694227 and 2586172 and 1761383 and 2099655 and 509578 and 446745 and 481433 and 842128, the “MIC Mtb # 11291” value [15] was 0.18 µg/mL (≈ 0.191 µM) and the MIC ([15]; read-out: MIC Mtb # 11291) was 0.19 µM (≈ 0.179 µg/mL).
